Where no end group is shown, it is not given here.
Legend:
[1] = test system: Panton Valentine Leukocidin; experiment: Quantification of Panton Valentine Leukocidin production by ELISA; assay type: cell-based, Staphylococcus aureus; conditions: supernatant after 24 h of culture, mean±SD, in duplicate
Procedure: The level of PVL production in the supernatant after 24 h of staphylococcal culture was determined in duplicate by using an ELISA method as described previously.
The level of PVL production in the supernatant after 24h of culture was determined in duplicate by using an ELISA method as described previously.

ECM components = assay type: cell-based, Staphylococcus aureus; conditions: constructs expressed in LUG960 (RN6390 in b7), P-luk-PV promoter; ECM proteins 5 µg/mL, absorbance at 540 nm
[2] = assay type: physicochemical; conditions: purified synthetic peptide
Text: To gain insight into the structure and lipotropic properties of the LukS-PV and LukF-PV signal peptides, the solubility and conformation of the corresponding purified synthetic peptides were examined under various stabilizing conditions by using either cosolvents (TFE: water mixtures, SDS) that are very useful tools for probing the propensity of peptides for secondary structure formation ([11], [12], and references therein), or membrane mimetic media including lysolipid (lysophosphatidyl choline, LPC), and detergents (DM, LPC and DPC). […] TFE is known to solubilize hydrophobic peptides as monomers and to stabilize the folding of peptidic sequences with an intrinsic propensity to adopt an α-helical structure. […] Various CD deconvolution methods used indicate a predominant α-helix content ranging from 64 to 77% in SDS and in TFE 50% for LukS-PV signal peptide, but only of about 40% for LukF-PV signal peptide in both media. […] These findings are consistent with the computer prediction that this peptide could easily aggregate (score of 0.8 with Zyggregator [13]). […] Taken together, these analyses indicate that after its processing by the signal peptidase, the LukS-PV signal peptide could readily leave the membrane translocon context and incorporate to the cytosolic or the extracellular aqueous environment.

matrix protein = experiment: Effect of heparinase III digestion of ECM proteins on bacterial adhesion; assay type: cell-based, Staphylococcus aureus; conditions: increasing concentrations added to coated wells, 1 h at room temperature, before adhesion assay
Procedure: Figure 4 Inhibition of adhesion to collagen IV by heparinase. Isogenic strains of Staphylococcus aureus examined for their binding capacity (Y-axis, absorbance reading at 540 nm) to collagen IV (Sigma) coated on 96-well plates, at concentrations of 5 µg/mL. Heparinase III was added at increasing concentrations (X-axis) to collagen IV (Sigma) before the adhesion assay. Parental (LUG960) indicates the genetic background in which the genetic modifications were made; LukS-PV SP, parental carrying a plasmid encoding the LukS-PV signal peptide. The vertical lines indicate the standard deviations.
To test the effect of digestion of ECM proteins with heparinase, increasing concentrations of heparinase III (Sigma) were added to laminin, elastin and type V, IV, I collagens (Sigma) coated wells, and incubated for 1 h at room temperature. After treatment, the wells were washed with 200 µL PBS 3 times, blocked with 200 µL of 0.2% BSA in PBS at 4°C for 2 h, and used in the adhesion assay.

In the case of “LukS-PV ΔSP: plasmid encoding LukS-PV without signal peptide (MVKKRLLAATLSLGIITPIATSFHESKA)”, the PVL levels [1] is reported as 2.39 ± 0.04 µg/mL and the “adhesion phenotype of expressing strain” value (ECM components) is reported as “basal level of attachment”.

For “MVKKRLLAATLSLGIITPIATSFHESKA [LukS-PV signal peptide]”, the solubility in water [2] was “largely soluble in water”.

B1: heparinase III: heparinase III (Sigma) (protein, UniProt Q59289 25-659, looked up)
Heparin-sulfate lyase: QSSSITRKDFDHINLEYSGLEKVNKAVAAGNYDDAAKALLAYYREKSKAREPDFSNAEKPADIRQPIDKVTREMADKALVHQFQPHKGYGYFDYGKDINWQMWPVKDNEVRWQLHRVKWWQAMALVYHATGDEKYAREWVYQYSDWARKNPLGLSQDNDKFVWRPLEVSDRVQSLPPTFSLFVNSPAFTPAFLMEFLNSYHQQADYLSTHYAEQGNHRLFEAQRNLFAGVSFPEFKDSPRWRQTGISVLNTEIKKQVYADGMQFELSPIYHVAAIDIFLKAYGSAKRVNLEKEFPQSYVQTVENMIMALISISLPDYNTPMFGDSWITDKNFRMAQFASWARVFPANQAIKYFATDGKQGKAPNFLSKALSNAGFYTFRSGWDKNATVMVLKASPPGEFHAQPDNGTFELFIKGRNFTPDAGVFVYSGDEAIMKLRNWYRQTRIHSTLTLDNQNMVITKARQNKWETGNNLDVLTYTNPSYPNLDHQRSVLFINKKYFLVIDRAIGEATGNLGVHWQLKEDSNPVFDKTKNRVYTTYRDGNNLMIQSLNADRTSLNEEEGKVSYVYNKELKRPAFVFEKPKKNAGTQNFVSIVYPYDGQKAPEISIRENKGNDFEKGKLNLTLTINGKQQLVLVP
With B1 the “effect of heparinase on bacterial adhesion” value (matrix protein) was “the bacterial adhesion decreased in a dose-dependent manner”.
